Experimental data reported in publication PMC5069167 (Nature chemical biology, 2016).

Target: T1, PolD (Streptomyces asoensis, UniProt C1IC31)
T1 sequence (C1IC31 1-215): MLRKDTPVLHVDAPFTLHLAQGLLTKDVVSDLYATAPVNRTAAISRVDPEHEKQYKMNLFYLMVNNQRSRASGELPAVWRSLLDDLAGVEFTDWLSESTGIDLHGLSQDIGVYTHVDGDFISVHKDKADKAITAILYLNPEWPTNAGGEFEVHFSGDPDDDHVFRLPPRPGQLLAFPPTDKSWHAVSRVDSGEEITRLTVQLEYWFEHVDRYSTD
Assay: binding and oxidation of alpha-KG, succinate detection by HR-MS
Format: biochemical
Details: Fe(II), ascorbate 5 mM, O2, pH 7.6, 25 °C

SMILES: O=C(O)CCC(=O)C(=O)O [α-KG]
- binding and oxidation of alpha-KG, succinate detection by HR-MS: non-heme mono-iron center capable of binding and oxidizing α-KG
